Patent publication US7250401B2, “Therapeutic compositions” (Advanced Therapeutics and Diagnostics, LC, priority 2001, dated 2007)

Assay: Reaction with thionitrobenzoate (detection of thiol-reactive substances, loss of absorbance at 412 nm)
Assay type: physicochemical
Details: for rate of reaction with thionitrobenzoate: aqueous solution at pH 7 and 25° C.
Procedure: A stock solution of 5-thio-2-nitrobenzoate (hereafter referred to as thionitrobenzoate) was prepared by reduction of 5,5′-dithiobis(2-nitrobenzoic acid) (hereafter referred to as DTNB, Aldrich Chemical Company). This stock solution was prepared by mixing 0.1 ml of 0.1 M DTNB dissolved in ethanol (396 mg of DTNB in 10 ml of ethanol), 0.1 ml of 1 M aqueous potassium phosphate buffer (prepared by mixing equal volumes of 1 M monobasic potassium phosphate with 1 M dibasic potassium phosphate), and 0.025 ml of 1 M sodium borohydride dissolved in 1 M NaOH on ice. After incubating this mixture for 10 minutes at ice temperature, 0.1 mL of 1 M monobasic potassium phosphate was added and the resultant solution was diluted to a final volume of 2 ml by addition of 1.675 ml of water.
An alternate method for preparation of a stock solution of thionitrobenzoate involves the use of 2-mercaptoethanol as reductant, in place of sodium borohydride. In this method a 10 mM solution of DTNB was prepared by mixing 39.6 mg of DTNB with 17 mg of sodium bicarbonate and 4 ml of ice-cold water. After allowing the effervescence to subside, this solution was mixed with 0.01 ml of 0.5 M trisodium ethylenediaminetetracetate and 0.1 ml of 1 M potassium phosphate buffer, then diluted to a final volume of 10 ml with water. A separate stock of 10 mM 2-mercaptoethanol was prepared by dilution of neat 2-mercaptoethanol (14.3 M) with water (serial dilution of 0.01 ml of neat 2-mercaptoethanol to 1 ml to give 0.143 M and then dilution of 0.07 ml of this solution to a final volume of 1 ml to give 10 mM). The stock of 8.7 mM thionitrobenzoate was prepared by mixing 2 ml of 1 M potassium phosphate buffer with 0.2 ml of 10 mM 2-mercaptoethanol and 0.1 ml of 10 mM aqueous DTNB.
If 0.01 ml of the 10 mM stock of thionitrobenzoate, obtained by sodium borohydride reduction of DTNB, was diluted with 0.89 ml of water and 0.1 ml of 1 M phosphate buffer, it gave an absorbance at 412 nm of 1.36 in a 1 cm pathlength cuvette. If 0.01 ml of the 8.7 mM stock of thionitrobenzoate obtained by 2-mercaptoethanol reduction of DTNB was diluted with 0.89 ml of water and 0.1 ml of 1 M phosphate buffer, it gave an absorbance at 412 nm of 1.18 in a 1 cm pathlength cuvette. […] (4 M^−1 s^−1).
(<0.05 M^−1 s^−1). DECOSMe (EXAMPLE 4) reacted with thionitrobenzoate under these conditions at a rate of 4 M^−1 s^−1. DETC-MeSO2 (EXAMPLE 5) reacted with thionitrobenzoate under these conditions at a rate of 0.4 M^−1 s^−1. S-Methyl-O-(N,N-diethylcarbamoyl)sulfinate (DECO2SMe, prepared by rearrangement of DETC-MeSO2 under the conditions described in EXAMPLE 4) reacted with thionitrobenzoate under these conditions at a rate of 14 M^−1 s^−1.

With `CCN(CC)C(=O)OS(C)=O` (stereo not drawn) [DECO2SMe, S-Methyl-O-(N,N-diethylcarbamoyl)sulfinate] the “rate of reaction with thionitrobenzoate” value was 14 M⁻¹ s⁻¹.

With `CCN(CC)C(=O)OSC` [DECOSMe, S-Methyl-O-(N,N-Diethylcarbamoyl)Sulfenate] the “half time of first-order decay of absorbance at 412 nm” value (0.01 ml of 0.1 M aqueous solution added to thionitrobenzoate assay mixture, 25° C.) was 2.9 min, the “rate of reaction with thionitrobenzoate (from first-order decay of absorbance at 412 nm)” value (0.01 ml of 0.1 M aqueous solution added, 25° C.) was 4 M⁻¹ s⁻¹ and the “rate of reaction with thionitrobenzoate” value was 4 M⁻¹ s⁻¹.

In the case of `CCN(CC)C(=O)S(C)(=O)=O` [DETC-MeSO2, S-Methyl-N,N-Diethylthiolcarbamate Sulfone], the “rate of reaction with thionitrobenzoate” value is reported as 0.4 M⁻¹ s⁻¹.

With `CCN(CC)C(=O)[S+](C)[O-]` (stereo not drawn) [DETC-MeSO, S-Methyl-N,N-Diethylthiolcarbamate Sulfoxide] the “rate of reaction with thionitrobenzoate, prior to rearrangement to DECOSMe” value (0.01 ml of 5 mM aqueous solution, freshly synthesized, anaerobic conditions, up to 24 hours) was “less than 0.01 M^−1 s^−1”.
